Assay results: publication PMC4860631, “Pharmacokinetics and tolerability of NSC23925b, a novel P-glycoprotein inhibitor: preclinical study in mice and rats” (Scientific Reports, 2016)
Where two headings read alike, the source gives them in different places.

Tests used:
in vivo = conditions: mouse, in vivo; for AUC(0-inf): AUC0-inf; for AUC(0-t): AUC0-t; for k el: Kel; for half-life: t1/2
Description: After dosing, blood samples were collected at different time points for each group. […] Three animals were used for each time point. Approximately 800 μL of blood was collected via orbital vein (a source of collecting sufficient volume of venous blood) from each anesthetized mouse by isoflurane, and 200 μL of blood was collected from the cannula implanted in the jugular vein. The catheter was implanted when the blood sample was collected at the first time point. Next, the blood was transferred to a prepared tube containing sodium heparin anticoagulant and mixed briefly by gentle inversion three to four times. The target and actual time of blood sampling were recorded relative to the time of dosing. Samples were placed on wet ice immediately after collection. Within 1 hour after collection, plasma was separated by centrifugation at 4,000 rpm for 10 minutes at 4 °C. The plasma was protected from light and stored at −80 °C until analyzed by liquid chromatography-mass spectrometry/mass spectrometry (LC-MS/MS) for quantification.
Using the data from the standards, calibration curves were generated for each analytical batch. Aliquots of 10.0 μL of samples, calibraton curve samples, and QC samples were supplemented with 100 μL of precipitant (a mixture of acetone and acetonitrile (30:70)). After vortexing for 3 min and centrifuging at 12,000 rpm for 3 min, 75.00 μL of the supernatant was transferred into a 96-well microplate with an equal volume of water. The 10 μL mixture solution was injected for LC-MS/MS analysis.
Data collection was performed using Analyst version 1.4 from Applied Biosystems. […] The data were also analyzed using Prism 5.0 software. Statistical significance was determined using independent two-tailed Student t-tests and one-way ANOVA for independent data. Differences of P < 0.05 were regarded as significant for all statistical analyses.

CYP1A2 = molecular target: T1, CYP1A2 (Homo sapiens, UniProt P05177); assay: HLM-LC-MS CYP450 inhibition assay, CYP1A2; type: in vitro ADME
T1 sequence (P05177 1-516): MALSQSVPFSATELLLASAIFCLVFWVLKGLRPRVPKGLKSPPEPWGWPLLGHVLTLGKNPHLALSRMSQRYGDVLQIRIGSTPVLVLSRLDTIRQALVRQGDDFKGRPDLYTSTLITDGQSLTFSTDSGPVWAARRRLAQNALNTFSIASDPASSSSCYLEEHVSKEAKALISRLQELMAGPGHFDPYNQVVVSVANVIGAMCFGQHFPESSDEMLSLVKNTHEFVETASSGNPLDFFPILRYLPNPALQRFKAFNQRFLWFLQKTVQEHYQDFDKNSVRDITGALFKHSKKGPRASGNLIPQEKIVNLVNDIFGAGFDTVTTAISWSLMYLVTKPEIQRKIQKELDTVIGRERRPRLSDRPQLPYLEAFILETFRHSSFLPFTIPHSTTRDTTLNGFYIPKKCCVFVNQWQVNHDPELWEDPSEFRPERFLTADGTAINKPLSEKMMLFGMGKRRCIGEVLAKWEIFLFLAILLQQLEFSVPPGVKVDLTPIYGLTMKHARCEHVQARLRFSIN

CYP2C9 = molecular target: T2, CYP2C9 (Homo sapiens, UniProt P11712); assay: HLM-LC-MS CYP450 inhibition assay, CYP2C9; type: in vitro ADME
T2 construct: from tissue; host or cells: human liver microsomes
Description: (§4) A sigmoid-shaped curve (Log(inhibitor) vs. Response-Variable slope) was fitted to the data and the IC50 was calculated using GraphPad Prism software.
(§5) This assay used a cocktail of drug-probe substrates that are specific to each isozyme with HLM and LC-MS detection[33][34]. Each test article and reference inhibitor was dissolved in 40% DMSO and 60% acetonitrile (ACN) mixture. […] Substrates were then added to their respective well containing the compound/HLM solution to start the reaction. […] The solution was centrifuged at 4 °C for 30 min at 3,700 rpm and the supernatant was transferred for LC-MS analysis. The concentrations of the metabolites were determined from standard curves using commercially available metabolite standards. Compounds were tested in triplicate. The half maximal inhibitory concentration (IC50) values were determined by plotting the metabolite formation over the logarithm of the compound concentration using Prism 5.0 software (GraphPad Software Inc., San Diego, CA).

CYP2C19 = molecular target: T3, CYP2C19 (Homo sapiens, UniProt P33261); assay: HLM-LC-MS CYP450 inhibition assay, CYP2C19; type: in vitro ADME
T3 construct: from tissue; host or cells: human liver microsomes
Description: Compounds were tested in triplicate.

CYP3A4 = molecular target: T4, CYP3A4 (Homo sapiens, UniProt P08684); assay: HLM-LC-MS CYP450 inhibition assay, CYP3A4; type: in vitro ADME
T4 construct: from tissue; host or cells: human liver microsomes
Description: as §4, §5

[1] = Determination of maximum tolerated dose (MTD) in mice; type: in vivo; conditions: mouse, in vivo
Description: (§1) The MTD determination assay was composed of sighting study and main study. For the sighting study of the determination maximum tolerable dose (MTD) of NSC23925b, one of each animal (one female rat, one male rat, one female mouse, and one male mouse) was used at each I.V. and I.P. injection dose level. The starting dose was selected from the fixed dose levels (5, 50, 500, 2000 mg/kg) as a dose expected to produce evident toxicity. The first animal was dosed and observed. Time of appearance, degree, and lasting/recovery time of signs were recorded in details. Afterwards, animals were observed twice on the dosing day and then changed to daily observation. The observation lasted at least 14 days. If the first animal died or appeared impaired, the second animal received a middle dose of the two doses and vice versa. The sighting study was completed when a decision on the starting dose for the main study was made.
(§2) During the main study, a total of five animals of one sex were used for each dose level investigated. The five animals were made up of one animal from the sighting study dosed at the selected dose level together with an additional four animals. Each group received one of the fixed doses by I.V. and I.P. based on the sighting study. If the first animal died or appeared impaired, the second animal received a middle dose of the two doses and vice versa.
(§3) Animals were fasted overnight prior to dosing. Following the period of fasting, the animals were weighed and the dose was calculated according to the body weight. After the animals were administrated a dose volume of 10 mL/kg, food was withheld for another 3–4 hours. Individual weights of animals were determined shortly before the test substance was administered and twice weekly thereafter. Weight changes were calculated and recorded. Animals injected with saline were the control group for the weight alteration.

BALB/c mice = assay: as above; type: in vivo; conditions: mice, 5 exposed
Description: as §1, §2, §3

[2] = Determination of maximum tolerated dose (MTD) in rats; type: in vivo; conditions: Sprague-Dawley, in vivo, read-out: tolerated dosage (MTD study)
Description: as §1, §2, §3

SD rats = assay: as above; type: in vivo; conditions: SD rats, 5 exposed
Description: as §1, §2, §3

T4 sequence (P08684 whole entry): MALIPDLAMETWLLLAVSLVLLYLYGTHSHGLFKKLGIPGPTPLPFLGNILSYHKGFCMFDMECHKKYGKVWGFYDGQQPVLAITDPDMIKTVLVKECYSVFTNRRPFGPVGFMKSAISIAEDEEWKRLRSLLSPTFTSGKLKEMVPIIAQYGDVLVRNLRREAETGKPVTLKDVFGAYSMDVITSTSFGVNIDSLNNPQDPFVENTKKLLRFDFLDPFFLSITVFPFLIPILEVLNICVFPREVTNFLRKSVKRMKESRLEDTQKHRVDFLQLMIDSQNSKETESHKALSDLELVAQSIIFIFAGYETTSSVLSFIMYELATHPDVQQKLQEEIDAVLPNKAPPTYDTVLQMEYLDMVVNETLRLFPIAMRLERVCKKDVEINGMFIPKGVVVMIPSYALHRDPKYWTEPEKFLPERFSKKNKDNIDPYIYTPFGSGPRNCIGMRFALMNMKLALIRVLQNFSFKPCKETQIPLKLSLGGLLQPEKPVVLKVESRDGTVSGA
T3 sequence (P33261 whole entry): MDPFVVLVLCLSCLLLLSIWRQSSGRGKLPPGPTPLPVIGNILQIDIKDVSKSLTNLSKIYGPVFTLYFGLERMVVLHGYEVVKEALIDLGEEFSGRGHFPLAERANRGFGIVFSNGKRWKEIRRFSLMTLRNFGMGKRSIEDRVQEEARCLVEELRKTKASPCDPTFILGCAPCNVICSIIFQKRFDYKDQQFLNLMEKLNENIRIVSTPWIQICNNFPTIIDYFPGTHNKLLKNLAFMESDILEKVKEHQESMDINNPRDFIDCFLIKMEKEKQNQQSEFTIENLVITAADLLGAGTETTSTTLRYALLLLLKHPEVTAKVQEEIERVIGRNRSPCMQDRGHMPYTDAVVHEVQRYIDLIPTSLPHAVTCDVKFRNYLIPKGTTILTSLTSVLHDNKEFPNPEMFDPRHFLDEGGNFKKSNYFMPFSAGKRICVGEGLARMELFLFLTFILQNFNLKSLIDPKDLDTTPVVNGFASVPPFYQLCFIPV
T2 sequence (P11712 whole entry): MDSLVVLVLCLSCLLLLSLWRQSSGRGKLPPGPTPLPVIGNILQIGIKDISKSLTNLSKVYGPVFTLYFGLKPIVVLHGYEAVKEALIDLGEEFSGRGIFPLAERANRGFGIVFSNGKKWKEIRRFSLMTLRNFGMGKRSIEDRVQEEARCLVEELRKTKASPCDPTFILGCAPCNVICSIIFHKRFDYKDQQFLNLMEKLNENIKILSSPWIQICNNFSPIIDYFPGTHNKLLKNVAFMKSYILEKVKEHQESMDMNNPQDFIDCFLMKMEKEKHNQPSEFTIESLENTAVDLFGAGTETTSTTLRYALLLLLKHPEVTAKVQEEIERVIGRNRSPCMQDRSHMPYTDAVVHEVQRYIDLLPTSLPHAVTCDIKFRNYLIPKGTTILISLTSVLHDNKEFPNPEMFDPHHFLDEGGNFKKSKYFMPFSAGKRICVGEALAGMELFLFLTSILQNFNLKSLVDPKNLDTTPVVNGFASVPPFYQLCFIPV

In the case of `COc1ccc(-c2cc(C(O)C3CCCCN3)c3ccccc3n2)cc1` (centres unmarked) [NSC23925b, (2-(4-methoxyphenyl)-4-quinolinyl)(2-piperidinyl)methanol], the “volumes of distribution at a steady state” value (in vivo; male, BALB/c (mice), Sprague-Dawley (rats)) is reported as > 9 L/kg, the “time of highest concentrations in plasma after I.P. injection” value (in vivo; male, BALB/c (mice), Sprague-Dawley (rats), ip, 5 mg/kg) is reported as 1 to 2 h and the “time of highest concentrations in plasma after I.V. injection” value (in vivo; male, BALB/c (mice), Sprague-Dawley (rats), iv, 2.5 mg/kg) is reported as 5 min. The “time point of peak plasma NSC23925b concentrations for both I.V. and I.P.” value (in vivo; male, BALB/c) was 15 min, the AUMC0-inf (in vivo; male, BALB/c, ip, 5 mg/kg) was 50744 ± 36083 h·h·ng·mL^−1 and the AUMC0-t (in vivo; male, BALB/c, ip, 5 mg/kg) was 25329 ± 4810 h·h·ng·mL^−1. For the same compound, the Cmax (in vivo; male, BALB/c, ip, 5 mg/kg) was 298 ± 56.1 ng/mL, the F (in vivo; male, BALB/c, ip, 5 mg/kg) was 117.1 ± 24.06% and the AUC(0-inf) (in vivo; male, BALB/c, ip, 5 mg/kg) was 3980 ± 819 ng·h/mL. The AUC(0-t) (in vivo; male, BALB/c, ip, 5 mg/kg) was 3360 ± 197 ng·h/mL, the k el (in vivo; male, BALB/c, ip, 5 mg/kg) was 2.56e-05 s⁻¹ and the half-life (in vivo; male, BALB/c, ip, 5 mg/kg) was 8.69 ± 4.18 h. It also gave a Tmax (in vivo; male, BALB/c, ip, 5 mg/kg, tmax) of ~1.5 h, an AUMC0-inf (in vivo; male, BALB/c, iv, 2.5 mg/kg) of 11945 ± 2141 h·h·ng·mL^−1 and an AUMC0-t (in vivo; male, BALB/c, iv, 2.5 mg/kg) of 9893 ± 1299 h·h·ng·mL^−1. It also gave an MRTIV (in vivo; male, BALB/c, iv, 2.5 mg/kg) of 6.99 ± 0.836 h, an AUC(0-inf) (in vivo; male, BALB/c, iv, 2.5 mg/kg) of 1700 ± 130 ng·h/mL and an AUC(0-t) (in vivo; male, BALB/c, iv, 2.5 mg/kg) of 1640 ± 114 ng·h/mL. It also gave a clearance (in vivo; male, BALB/c, iv, 2.5 mg/kg, CL) of 24.6 ± 1.96 mL/min/kg, a k el (in vivo; male, BALB/c, iv, 2.5 mg/kg) of 3.89e-05 s⁻¹ and a Vd (in vivo; male, BALB/c, iv, 2.5 mg/kg, VdSS) of 10.3 ± 0.808 L/kg. For the same compound, the half-life (in vivo; male, BALB/c, iv, 2.5 mg/kg) was 5.01 ± 0.661 h, the “treatment-related clinical signs during the pharmacokinetic study” value (in vivo) was “no treatment-related clinical signs were observed” and the CYP inhibitor class (CYP1A2) was “weak (IC50 values of >10 μM)”. For the same compound, the IC50 (CYP1A2; substrate phenacetin 30 μM, O-deethylation, read-out: Compound IC50) was > 10 µM, the CYP inhibitor class (CYP2C9) was “weak (IC50 values of >10 μM)” and the IC50 (CYP2C9; substrate diclofenac 10 μM, 4-hydroxylation, read-out: Compound IC50) was > 10 µM. The CYP inhibitor class (CYP2C19) was “weak (IC50 values of >10 μM)”, the IC50 (CYP2C19; substrate S-mephenytoin 35 μM, 4-hydroxylation, read-out: Compound IC50) was > 10 µM and the CYP inhibitor class (CYP3A4) was “weak (IC50 values of >10 μM)”. For the same compound, the IC50 (CYP3A4; substrate midazolam 5 μM, 1-hydroxylation, read-out: Compound IC50) was > 10 µM, the IC50 (CYP3A4; substrate not specified, read-out: IC50) was > 10 µM and the IC50 (CYP3A4; substrate testosterone 80 μM, 6ß-hydroxylation, read-out: Compound IC50) was > 10 µM. It also gave an MTD ([1]; BALB/c, ip, male mice, I.P., all five tolerated, read-out: tolerated dosage (MTD study)) of 68.8 mg/kg, an MTD ([1]; both sexes, BALB/c (mice), Sprague-Dawley (rats), intraperitoneal, intravenous, rodents (mice and rats), I.P./I.V., read-out: tolerated dosage according to the MTD results) of 24.7 to 93.8 mg/kg and an MTD ([1]; both sexes, BALB/c, iv, female and male mice, I.V., health conditions not significantly influenced, read-out: tolerated dosage (MTD study)) of 24.7 mg/kg. The “Number of Death” value (BALB/c mice; I.P., 68.80 mg/kg, male) was 0, the “Number of Death” value (BALB/c mice; I.P., 93.75 mg/kg, female) was 2 and the “Number of Death” value (BALB/c mice; I.V., 24.70 mg/kg, female) was 0. For the same compound, the “Number of Death” value (BALB/c mice; I.V., 24.70 mg/kg, male) was 0, the MTD ([2]; iv, female rats, I.V., one female rat moribund) was 47.2 mg/kg and the MTD ([2]; rat, ip, male rats, I.P., all in good status) was 33.1 mg/kg. The MTD ([2]; rat, iv, male rats, I.V.) was 38.8 mg/kg, the “Number of Death” value (SD rats; I.P., 33.10 mg/kg, male) was 0 and the “Number of Death” value (SD rats; I.P., 47.20 mg/kg, female) was 1. For the same compound, the “Number of Death” value (SD rats; I.V., 38.80 mg/kg, male) was 0 and the “Number of Death” value (SD rats; I.V., 47.20 mg/kg, female) was 1.
